Experiments:
[1] = system: M. incognita J2 larvae; test: Quantitative chemotaxis population assay (worm attraction assay); assay type: in vivo, Meloidogyne incognita; conditions: 6-cm Petri dish, larvae counted after 4 hours
Procedure: FIG. 6A provides a graph of the number of nematodes touching the root tips of Arabidopsis wildtype and acx1acx5 treated with 50 nM ascr #18 or ascr #9 for 48 hours before transfer into 12-well plates containing Pluronic® F-127 gel with ˜200 freshly hatched M. incognita J2 larvae. Larvae touching the terminal part of roots were counted at 6 hours after seedling transfer. Data are average±s.d. (n=12). FIG. 6B provides a schematic of a Petri dish as shown in the plate layout. For FIG. 6C, the indicated concentrations of ascr #18, ascr #9, or ascr #18/ascr #9 mixtures were placed on one side with mock solutions on the other side of the 6-cm Petri dish. Subsequently, approximately 100 freshly hatched M. incognita J2 larvae were placed in the center of the plate. Larvae in the indicated scoring areas were counted after 4 hours. Data are averages±s.d. (n=12), **P≤0.003; two-tailed t-test. FIG. 6D provides the attraction index for different concentrations of ascr #18, ascr #9, or ascr #18/ascr #9 mixtures measured using the layout shown in FIG. 6C. Data are averages±SEM (n=12), **P≤0.002; two-tailed t-test.
Ascarosides were dissolved in ethanol to prepare millimolar stock solutions. […]
Chemotaxis plates were prepared by pouring 8 mL of 2% bacto-agar (BD Biosciences) into 6-cm Petri dishes. […] Worms that remained in the center 0.5-cm-wide strip were not counted. […]

[2] = system: Arabidopsis leaves; test: LC-MS time course of Arabidopsis leaves infiltrated with ascr #18; assay type: in vivo, Arabidopsis thaliana; conditions: Arabidopsis leaves infiltrated with 1 μM ascr #18
Excerpt: FIG. 2A provides LC-MS analysis of tomato roots treated with ascr #18 or ^13C2-labeled ascr #18. Plants treated with ^13C2-labeled ascr #18 show peaks at 333.21932 and 249.12542, representing [M-H]^− of ^13C2-ascr #18 and ^13C2-ascr #9, but not at 331.21261 and 247.11871, which correspond to [M-H]^− of ascr #18 and ascr #9, and vice versa. Structures of ascr #18 and ascr #9 indicating the positions of the ^13C2-label are shown above ion chromatograms. Peaks marked with an asterisk represent unrelated peaks. FIGS. 2B and 2C provide graphs showing the relative abundances of ascr #18 and ascr #9, respectively, as measured by LC-MS. Four-week old Arabidopsis leaves were infiltrated with 1 μM ascr #18, and leaf tissue were harvested for LC-MS analyses over a period of 96 hours post infiltration of ascr #18. Data are averages±SEM (n=3). FIG. 2D provides LC-MS analyses of tomato leaves infiltrated with 1 μM ascr #18. Tissues were collected over a 12 hour period. Abundances of ascr #18 and ascr #9 are shown as the peak area, as measured by LC-MS. […] To test whether microbes are required for the observed metabolic transformations, leaves of 4-week old Arabidopsis plants were directly infiltrated with ascr #18 and leaf tissue was subsequently harvested for analysis by LC-MS as above. […] About 50% of ascr #18 was metabolized during the first 12 hours, during which time concomitant accumulation of ascr #9 was observed. Formation of ascr #9 was also observed in leaves of 4-week old tomato plants infiltrated with ascr #18 (FIG. 2D).

[3] = system: Arabidopsis root exudates; test: LC-MS of root exudates of ascr #18-treated Arabidopsis seedlings; assay type: in vivo, Arabidopsis thaliana
Procedure: Data are average±SEM (n=6), n.d.=not detected. […] Exudates from approximately 40 seedlings were collected in distilled water and pooled. Abundances of ascarosides are shown as the peak area, as measured by LC-MS. Data are average±SEM (n=3); n.d.=not detected. FIGS. 5C and 5D show the relative abundances of ascarosides in root exudates of eight-day old tomato seedlings treated with 10 nM (FIG. 5C) or 1000 nM (FIG. 5D) ascr #18 for 6 hours. Exudates from approximately 10 seedlings were collected in distilled water and pooled. Abundances of ascarosides are shown as the peak area, as measured by LC-MS. Data are average±SEM (n=3); n.d.=not detected. FIG. 5E provides the relative abundances of ascr #10, ascr #1, and ascr #9 in the growth media of eight-day old tomato seedlings supplemented with 1 μM ascr #18. Ten-gram media samples were collected at different time points over a 48 hour period for metabolome extraction. Abundances of ascarosides are shown as the peak area, as measured by LC-MS.
To test this possibility, root-secreted metabolites of ascr #18- and mock-treated Arabidopsis were compared (FIG. 5A). For this experiment, 10-day old Arabidopsis seedlings were treated in growth media supplemented with ascr #18 for 6 hours prior to collection of exudates from roots submerged in water. […] Analogous results were obtained in experiments with tomato roots (FIG. 5C, 5D).

Structure (SMILES) | chemotaxis behavior of M. incognita J2 larvae (attraction index) [1] | ascr #18 metabolized ([2]; first 12 hours) | ascarosides in root exudates of acx1acx5 ([3]; acx1acx5 seedlings, 10 nM ascr #18 for 6 hours) | time of peak ascr #9 concentration post-infiltration [2] [h] | ascr #9 concentration at 96 hours ([2]; 96 hours) | relative abundance among root-excreted ascr #18 metabolites ([3]; Arabidopsis) | secretion of ascr #18 metabolites via roots ([3]; ascr #18-treated wildtype, 6 hours treatment)
CC1O[C@@H](O[C@@H](C)CCCCCCCCC(=O)O)C(O)C[C@H]1O (stereo in doubt) [ascr #18, (10R)-(3′R,5′R-dihydroxy-6′S-methyl-(2H)-tetrahydropyran-2-yloxy)-undecanoic acid] | no significant effect | About 50% | larger amounts of residual ascr #18 than in wildtype |  |  |  | 
C[C@H](CCC(=O)O)O[C@@H]1O[C@@H](C)[C@H](O)C[C@H]1O [ascr #9] | no significant effect |  |  | ≤ 12 | very low levels | most abundant | secretion
